Measurements as given in patent publication US5418218A, “Histidyl-proline diketopiperazine (cyclo his-pro) a cns-active pharmacologic agent” (The University of Maryland at Baltimore, priority 1992, dated 1995).

Experiments:
[1] = Weight loss activity of cyclic dipeptides; conditions: in vivo
Description: As to the active ingredient, while the effect as to weight loss appears to be stereospecific, it is contemplated that alterations can be made to the compound to enhance the activities thereof contemplated to fall within the scope of the instant invention.

[2] = Intracerebroventricular administration / lateral ventricle infusion, appetite and weight gain; type: in vivo, rodents; conditions: administered IVT acutely
[3] = cited from earlier work
[4] = Stability in vivo and in drinking water
Description: While it is known that the pyroglutamic acid residue often confers stability on a peptide carrying the same at a terminus, such as TRH, the precursor of cyclo (His-Pro), the pyroglutamic acid residue is not present in cyclo His-Pro.
The carrier(s) must be "acceptable" in the sense of being compatible with other ingredients of the formulation and not deleterious to the recipient thereof. […] Formulations suitable for administration conveniently comprise sterile aqueous solutions of the active chemical, which may be conveniently prepared by mixing the active chemical with water, and after rendering said solution sterile it may be presented in sealed containers.

[5] = Oral cyclo (His-Pro) in drinking water, weight gain in rodents
[6] = test system: pancreatic or intestinal enzymes; assay: Resistance to proteolytic digestion
[7] = Oral administration to rats, appearance in plasma; conditions: administered orally to rats
[8] = Intraperitoneal cyclo (His-Pro), inhibition of appetite in animals receiving liquid diets; type: in vivo; conditions: intraperitoneally, 20 mg/kg/day for 24 days
[9] = Passage of the blood-brain barrier; type: in vivo; conditions: non-CNS administration
Protocol: Thus, it was determined in the development of the instant invention that cyclo (His-Pro), unlike the vast majority of biologics that are susceptible to degradation in the gastrointestinal tract, can be administered by those routes normally employed for drug administration, such as intramuscularly and intravenously, but also that cyclo (His-Pro) can be administered orally. […] Although not an absolute barrier of the passage of compounds into the brain, many compounds cross very slowly if at all to any effective extent.

[10] = oral in drinking water, versus control animals, P<0.02

Compound	weight loss activity [1]	duration of action [2]	duration of appetite reduction ([3]; after intracerebroventricular administration to rodents)	duration of inhibition of weight gain ([3]; infused into the lateral ventricle)	effectiveness after addition to water ([4]; added to water, such as drinking water from the tap)	enzymatic degradation in vivo ([4]; in vivo)	half-life ([4]; in vivo)	cause of weight loss (satiety versus illness) ([5]; experimental studies)	mean body weight reached by experimental animals ([5]; oral in drinking water, 1 or 2 mg/kg/day for 14 to 18 days, controls gained from a mean of 248 to 396 gms)	inhibition of weight gain [5, 10]	inhibition of weight gain (minus %) [5, 10]	resistance to proteolytic digestion [6]	form appearing in plasma [7]	inhibition of appetite [8]	blood-brain barrier passage [9]
O=C1[C@@H]2CCCN2C(=O)[C@@H]2CCCN12 [cyclo (Pro-Pro)]	did not provide weight loss activity	–	–	–	–	–	–	–	–	–	–	–	–	–	–
O=C(O)CCC1NC(=O)C(Cc2ccccc2)NC1=O (stereo not shown) [cyclo (Glu-Phe)]	did not provide weight loss activity	–	–	–	–	–	–	–	–	–	–	–	–	–	–
O=C1N[C@@H](Cc2cnc[nH]2)C(=O)N2CCC[C@@H]12 [cyclo (His-Pro), L-histidyl-L-proline diketopiperazine]	–	about 12 hours	≤ 12 h	2 weeks	retain effectiveness	resistant to enzymatic degradation in vivo	long half-life	due to induction of satiety, not of nausea, vomiting or illness	384 gms	12 grams	8.1%	uniquely resistant to proteolytic digestion	completely unaltered biochemically	can induce inhibition of appetite	crosses the blood-brain barrier to achieve effective concentrations in a short period of time
